Experimental data: patent US12473295B2, “Substituted straight chain spiro derivatives” (Janssen Pharmaceutica NV, priority 2019, dated 2025)
pIC50: −log10 of the molar value. Where a name gives a salt, the structure may show the parent alone.

Assays:
[1] = system: MEIS1 mRNA; test: MEIS1 mRNA expression assay (Quantigene Singleplex) in MOLM14 cells; assay type: cell-based, human; conditions: Homo sapiens, MOLM-14, 48 h, 48 hours incubation;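 further: MEIS1 transcript levels read by probe hybridization and normalized to RPL28 mRNA, with IC50 fitted to fold changes across a rising compound concentration series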
[2] = biological target: menin/MLL (terbium chelate-labeled menin, FITC-MBM1 peptide) (Homo sapiens (Human), UniProt O00255); test: Menin/MLL homogenous time-resolved fluorescence (HTRF) assay; assay type: binding; conditions: HTRF-30 min incubation IC50, 30 min incubation;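 further: IC50 from percent inhibition of HTRF signal, normalized between wells without competitor and wells with a saturating competitor that displaces FITC-MBM1 from His-tagged menin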
[3] = system: KO-52 cells; test: Proliferation assay (spheroid growth, 8 days), KO-52 control cell line; assay type: cell-based, human; conditions: Homo sapiens, […], read-out: spheroid assay_OneTime KO-52 IC50
Summary of the method: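 Spheroid size on day 8, taken as live-cell imaging confluence, served as readout after 8-day compound exposure (0.3% DMSO, 37 °C, 5% CO2) in round-bottom low-attachment wells. Seeding was 200 cells for MOLM14 and OCI-AML3, 300 for KO-52. IC50 came from % effect versus DMSO and reference baseline, fitted with variable slope.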

[4] = biological target: hERG (Homo sapiens (Human), UniProt Q12809); test: Effect on membrane potassium current IKr in hERG-transfected HEK293 cells, Protocol 2 (SyncroPatch 384PE); assay type: cell-based; conditions: Protocol 2, hERG-transfected HEK293 cells
Experimental: 8) Effect on the Membrane Potassium Current IKr in hERG Transfected Cell Lines
The compound, vehicle control and positive control were tested on hERG-transfected HEK293 cells. A human embryonic kidney cell line (HEK293) with a stable transfection of hERG (Zhou Z et al. Biophysical Journal 1998. 74, 230-241; McDonald T. V. et al, Nature 1997. 388, 289-292) was used (University of Wisconsin, Madison, USA). The cells were kept in culture in MEM (Minimum Essential Medium, Gibco) which was supplemented with (amounts indicated added to 500 ml MEM): 5 ml L-Glutamine-Penicillin-Streptomycin (Sigma), 50 ml Fetal Bovine serum (Bio-Whittaker), 5 ml Non-essential Amino Acids 100× (Gibco), 5 ml sodium pyruvate 100 mM (Gibco) and 4 ml geneticin 50 mg/ml (Gibco) using T175 flasks. The cells were incubated at 37° C. in 5% CO2 atmosphere (in air).
Cell Harvesting for Assay
Cells were harvested as described below using Accumax™ (Sigma) as the dissociating reagent. Cells were then resuspended in a mixture of 33% DMEM/F12 (Dulbecco's Modified Eagle Medium/Nutrient Mixture F-12—Sigma) media/67% extracellular physiological solution.
The flasks were washed twice carefully with ˜5-10 ml phosphate buffered saline (PBS) (Gibco™) containing 2 mM EDTA (Ethylenediaminetetraacetic acid) (Sigma). The cells were dissociated using ˜3 ml of Accumax™ (cell detachment solution) and incubated for ˜5 to 10 min. at 37° C. Cold external physiological solution (2-5 ml) was added and the flasks are incubated at ˜4° C. for 5-10 min. Then, the cell suspension in each flask was gently dissociated with a 5 ml pipette. The cell suspension was transferred to a low binding petri-dish (˜[…]). Each flask was washed with ˜additional 5 ml cold external physiological solution and this solution was also added to the petri-dish. The petri-dish was then incubated for another 5 to 10 minutes at ˜4° C. After another gentle dissociation of the cell suspension in the petri dish, the cells were transferred to a reservoir kept on an orbital shaker at 200 rpm at 16° C. Before experiments were performed, the cells recovered for ˜20 min.
A 10 mM solution of the compound was used and plated in a 384 well plate. Aliquots of the stock solutions are diluted with the recording solution (see section 3) using automated liquid handling (Biomek FXP; final DMSO concentration: 0.03 to 0.3%). A standard range of screening concentrations was used ranging from 1 μM to 30 μM.
A positive control (E-4031) was included within each run to evaluate the sensitivity of the assay.
External and Intracellular Solutions Used in the Experiments
In the table below the composition of the intracellular and external buffer solutions is shown in [mM] (“NMDG” means N-methyl-D-glucamine)
The whole cell patch clamp technique on transfected cells allows the study of ion-channels with no—or limited interference from other ion-channels. The effects of the compounds on the hERG current were studied with an automated planar patch clamp system, SyncroPatch 384PE (Obergrussberger et al, Journal of Laboratory Automation 2016. 21 (6). 779-793). All cells were recorded in the whole cell mode of the patch clamp technique. The module is incorporated in a liquid handling pipetting robot system, Biomek FXP, for application of cells and compounds, vehicle control and positive control.
The different concentrations of the compounds were applied in two cumulatively increasing concentrations for the compounds (1 μM and 10 μM, and 3 μM and 30 μM, respectively). The hERG current was determined as the maximal tail current at −30 mV and percent inhibition upon compound or vehicle and positive control addition was reported.
After cells are caught onto the individual holes of the recording chips using the chip fill solution, the seal is increased with the seal enhancer solution (increased [Ca^2+]; then the cells were washed twice with recording solution before using a pressure protocol to go into the whole cell mode. […]

Sequence of menin/MLL (terbium chelate-labeled menin, FITC-MBM1 peptide) (O00255 other isoform, or with tags, fused parts or gaps): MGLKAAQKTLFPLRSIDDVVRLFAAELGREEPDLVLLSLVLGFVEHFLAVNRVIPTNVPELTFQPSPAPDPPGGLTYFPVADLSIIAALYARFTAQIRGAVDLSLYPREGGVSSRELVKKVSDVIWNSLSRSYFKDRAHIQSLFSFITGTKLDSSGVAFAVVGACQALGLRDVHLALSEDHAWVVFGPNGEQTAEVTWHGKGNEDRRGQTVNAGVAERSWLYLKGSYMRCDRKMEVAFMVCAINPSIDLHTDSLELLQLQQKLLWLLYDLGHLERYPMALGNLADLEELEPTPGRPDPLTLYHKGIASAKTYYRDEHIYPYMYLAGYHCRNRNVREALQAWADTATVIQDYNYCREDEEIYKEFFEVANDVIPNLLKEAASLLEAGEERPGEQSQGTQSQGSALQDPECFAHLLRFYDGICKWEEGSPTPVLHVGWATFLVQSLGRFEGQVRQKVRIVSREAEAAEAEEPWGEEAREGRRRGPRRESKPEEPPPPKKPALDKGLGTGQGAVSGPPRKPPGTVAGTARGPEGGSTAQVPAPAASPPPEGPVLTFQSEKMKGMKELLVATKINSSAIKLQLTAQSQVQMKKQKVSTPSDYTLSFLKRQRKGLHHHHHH
Sequence of hERG (Q12809 whole entry): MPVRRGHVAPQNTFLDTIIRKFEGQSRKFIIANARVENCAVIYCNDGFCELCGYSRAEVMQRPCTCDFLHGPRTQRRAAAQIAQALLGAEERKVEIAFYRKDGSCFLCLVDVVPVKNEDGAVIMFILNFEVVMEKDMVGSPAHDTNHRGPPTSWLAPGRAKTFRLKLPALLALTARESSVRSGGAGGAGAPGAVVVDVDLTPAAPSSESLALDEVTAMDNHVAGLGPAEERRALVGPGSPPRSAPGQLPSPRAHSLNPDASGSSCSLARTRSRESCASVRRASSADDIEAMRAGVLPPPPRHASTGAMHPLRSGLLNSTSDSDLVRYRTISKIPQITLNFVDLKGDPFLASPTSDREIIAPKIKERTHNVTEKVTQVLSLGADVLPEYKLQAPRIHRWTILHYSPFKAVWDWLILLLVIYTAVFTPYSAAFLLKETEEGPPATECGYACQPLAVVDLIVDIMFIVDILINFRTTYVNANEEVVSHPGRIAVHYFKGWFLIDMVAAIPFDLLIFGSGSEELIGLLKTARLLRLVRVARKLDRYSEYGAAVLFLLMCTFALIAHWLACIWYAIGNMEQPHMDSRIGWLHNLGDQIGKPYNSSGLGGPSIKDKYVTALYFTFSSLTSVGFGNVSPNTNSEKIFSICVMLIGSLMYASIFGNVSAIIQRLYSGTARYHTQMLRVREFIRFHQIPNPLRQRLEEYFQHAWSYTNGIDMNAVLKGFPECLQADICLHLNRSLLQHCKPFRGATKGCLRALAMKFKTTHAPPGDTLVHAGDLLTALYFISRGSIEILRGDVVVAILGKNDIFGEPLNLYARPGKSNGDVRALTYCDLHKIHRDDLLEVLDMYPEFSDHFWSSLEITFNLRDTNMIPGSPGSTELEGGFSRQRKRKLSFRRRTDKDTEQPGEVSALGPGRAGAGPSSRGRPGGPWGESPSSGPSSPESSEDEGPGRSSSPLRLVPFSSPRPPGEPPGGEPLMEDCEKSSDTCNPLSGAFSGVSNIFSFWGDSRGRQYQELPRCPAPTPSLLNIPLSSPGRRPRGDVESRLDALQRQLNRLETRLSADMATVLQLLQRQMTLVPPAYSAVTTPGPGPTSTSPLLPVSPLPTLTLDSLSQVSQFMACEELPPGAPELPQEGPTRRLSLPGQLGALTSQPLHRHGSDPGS

pIC50 [1] | pIC50 [2] | Structure (SMILES) | pIC50 [3] | pIC50 [4]
7.41 | 9.92 | CC(C)[C@@H](CCC(C)(C)N)N1CC2(CCN(c3ncnnc3Oc3ccc(F)cc3-c3cncnc3C3CC3)C2)C1 (single isomer, unassigned) [Compound 37, (*R)-5-(6-(6-(2-(4-cyclopropylpyrimidin-5-yl)-4-fluorophenoxy)-1,2,4-triazin-5-yl)-2,6-diazaspiro[3.4]octan-2-yl)-2,6-dimethylheptan-2-amine] | < 4.82 | 
7.59 | 9.70 | COCCNCCC[C@H](C(C)C)N1CC2(CCN(c3ncnnc3Oc3ccc(F)cc3C(=O)N(C(C)C)C(C)C)C2)C1 (single isomer, unassigned) [Compound 99, (*R)-5-fluoro-N,N-isopropyl-2-((5-(2-(6-((2-methoxyethyl)amino)-2-methylhexan-3-yl)-2,6-diazaspiro[3.4]octan-6-yl)-1,2,4-triazin-6-yl)oxy)benzamide oxalate] | 4.94 | < 4.52
7.12 | 9.89 | CCN(C(=O)c1cc(F)ccc1Oc1nncnc1N1CCC2(C1)CN([C@H](CCCN)C(C)C)C2)C(C)C [Compound 1, (R)-2-((5-(2-(6-amino-2-methylhexan-3-yl)-2,6-diazaspiro[3.4]octan-6-yl)-1,2,4-triazin-6-yl)oxy)-N-ethyl-5-fluoro-N-isopropylbenzamide formate] | < 4.82 | 
7.82 | 10.13 | CCN(C(=O)c1cc(F)ccc1Oc1nncnc1N1CCC2(C1)CN([C@H](CCCNCC(OC)OC)C(C)C)C2)C(C)C.O=C(O)/C=C/C(=O)O [Compound 104, (R)-2-((5-(2-(6-((2,2-dimethoxyethyl)amino)-2-methylhexan-3-yl)-2,6-diazaspiro[3.4]octan-6-yl)-1,2,4-triazin-6-yl)oxy)-N-ethyl-5-fluoro-N-isopropylbenzamide fumarate] | 4.97 | < 4.52
8.05 | 10.31 | CCN(C(=O)c1cc(F)ccc1Oc1nncnc1N1CCC2(C1)CN([C@H](CCCN[C@H](C)COC)C(C)C)C2)C(C)C.O=C(O)/C=C/C(=O)O [Compound 112, N-ethyl-5-fluoro-N-isopropyl-2-(5(2-((R)-6-(((R)-1-methoxypropan-2-yl)amino)-2-methylhexan-3-yl)-2,6-diazaspiro[3.4]octan-6-yl)-1,2,4-triazin-6-yl)oxy)benzamide fumarate] | < 4.82 | < 4.52
7.66 | 10.30 | CCN(C(=O)c1cc(F)ccc1Oc1nncnc1N1CCC2(C1)CN([C@H](CCCNCCC(F)F)C(C)C)C2)C(C)C.O=C(O)/C=C/C(=O)O [Compound 114, (R)-2-(5-(2-(6-((3,3-difluoropropyl)amino)-2-methylhexan-3-yl)-2,6-diazaspiro[3.4]octan-6-yl)-1,2,4-triazin-6-yl)oxy)-N-ethyl-5-fluoro-N-isopropylbenzamide fumarate] | 5.77 | < 4.52
6.85 | 9.59 | CCN(C(=O)c1cc(F)ccc1Oc1nncnc1N1CCC2(C1)CN([C@H](CCCN(C)CCNC(C)=O)C(C)C)C2)C(C)C.O=C(O)/C=C/C(=O)O [Compound 245, (R)-2-((5-(2-(6-((2-acetamidoethyl)(methyl)amino)-2-methylhexan-3-yl)-2,6-diazaspiro[3.4]octan-6-yl)-1,2,4-triazin-6-yl)oxy)-N-ethyl-5-fluoro-N-isopropylbenzamide fumarate] | < 4.82 | < 4.52
6.74 | 10.20 | CCN(C(=O)c1cc(F)ccc1Oc1nncnc1N1CCC2(C1)CN([C@H](CCCN(C)CCC(=O)N(C)C)C(C)C)C2)C(C)C [Compound 246, (R)-2-((5-(2-(6-((3-(dimethylamino)-3-oxopropyl)(methyl)amino)-2-methylhexan-3-yl)-2,6-diazaspiro[3.4]octan-6-yl)-1,2,4-triazin-6-yl)oxy)-N-ethyl-5-fluoro-N-isopropylbenzamide formate] | < 4.82 | < 4.52
